Experiment [1] deals with T1, Caspase-7 (Homo sapiens, UniProt P55210).
T1 sequence (P55210 whole entry): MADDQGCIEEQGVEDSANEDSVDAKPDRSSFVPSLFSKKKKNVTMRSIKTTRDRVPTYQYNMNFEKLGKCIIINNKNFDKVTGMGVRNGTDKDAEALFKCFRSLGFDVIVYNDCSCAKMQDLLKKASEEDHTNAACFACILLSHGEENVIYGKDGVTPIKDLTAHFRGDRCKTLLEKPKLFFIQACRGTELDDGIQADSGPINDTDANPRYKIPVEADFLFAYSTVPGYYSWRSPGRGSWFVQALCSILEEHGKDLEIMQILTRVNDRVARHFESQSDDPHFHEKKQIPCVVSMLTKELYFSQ
Description: human caspase-7 inhibitors, dose response, selectivity assay for caspase-6 inhibitor project, biochemical, DEVD-R110 fluorescence, cherry-pick (AID 743295). Format: […].

Experiment [2] addresses Serine/threonine-protein phosphatase (Homo sapiens, UniProt Q9BPW0). Description: PP5 phosphatase inhibitors, dose response, biochemical, fluorescence (AID 2395).
Experiment [3] has as its target Megakaryocyte-associated tyrosine-protein kinase (Homo sapiens, UniProt P42679). In kind it is functional.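 Note: affinity measured as one member of a kinase panel (Navigating the Kinome) against MATK.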
For experiment [4], the target named is Dual specificity mitogen-activated protein kinase kinase 1 (Homo sapiens, UniProt Q02750). Briefly: Navigating the Kinome. Panel member name: MAP2K1. Format: functional.
In experiment [5] the target is Protein kinase C delta type (Homo sapiens, UniProt Q05655). In kind it is functional.
Experiment [6] has as its target Tyrosine-protein kinase receptor TYRO3 (Homo sapiens, UniProt Q06418). Format: functional.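 Note: TYRO3 value obtained as one member of a kinome-wide profiling panel.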
Experiment [7] concerns the target Cell division cycle 7-related protein kinase (Homo sapiens, UniProt O00311). Format: functional.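 Note: value obtained from a kinome-wide kinase panel.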
Experiment [8] addresses Mast/stem cell growth factor receptor Kit (Homo sapiens, UniProt P10721). Format: functional.
For experiment [9], the target named is Serine/threonine-protein kinase PAK 4 (Homo sapiens, UniProt O96013). Format: functional.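 Note: value obtained within a kinome profiling panel in which PAK4 was one of the panel members.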
The target in experiment [10] is Serine/threonine-protein kinase PAK 1 (Homo sapiens, UniProt Q13153). In kind it is functional.
The target of experiment [11] is Calcium/calmodulin-dependent protein kinase type II subunit delta (Homo sapiens, UniProt Q13557). In kind it is functional.
In experiment [12] the target is Mitogen-activated protein kinase 9 (Homo sapiens, UniProt P45984). In kind it is functional.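 Note: value from a kinome panel profiling assay, MAPK9 panel entry.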
Experiment [13] addresses Tyrosine-protein kinase Blk (Homo sapiens, UniProt P51451). Format: functional.
Experiment [14] deals with Tyrosine-protein kinase Srms (Homo sapiens, UniProt Q9H3Y6). Format: functional.
In experiment [15] the target is Activated CDC42 kinase 1 (Homo sapiens, UniProt Q07912). Description: Navigating the Kinome. Panel member name: ACK1. In kind it is functional.
Experiment [16] addresses Casein kinase I isoform delta (Homo sapiens, UniProt P48730). Format: functional.
Experiment [17] addresses MAP kinase-interacting serine/threonine-protein kinase 2 (Homo sapiens, UniProt Q9HBH9). Format: functional.
Experiment [18] addresses Vascular endothelial growth factor receptor 2 (Homo sapiens, UniProt P35968). In kind it is functional.
Experiment [19] deals with Interleukin-1 receptor-associated kinase 1 (Homo sapiens, UniProt P51617). In kind it is functional.
The target of experiment [20] is Calcium/calmodulin-dependent protein kinase type 1 (Homo sapiens, UniProt Q14012). In kind it is functional.
The target in experiment [21] is 3-phosphoinositide-dependent protein kinase 1 (Homo sapiens, UniProt O15530). Format: functional.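 Note: value comes from the Navigating the Kinome panel, PDPK1 member.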
For experiment [22], the target named is Serine/threonine-protein kinase PLK1 (Homo sapiens, UniProt P53350). Format: functional.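 Note: PLK1 measured as one member of a kinome-wide profiling panel.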
Experiment [23] deals with Macrophage-stimulating protein receptor (Homo sapiens, UniProt Q04912). Description: Navigating the Kinome. Panel member name: MST1R. Format: functional.

Experimental findings from ChEMBL document CHEMBL1201862, “PubChem BioAssay data set” (2004) are described below.

Activity calls are given as the source filed them.

Calcium/calmodulin-dependent protein kinase type 1, sequence (Q14012 whole entry): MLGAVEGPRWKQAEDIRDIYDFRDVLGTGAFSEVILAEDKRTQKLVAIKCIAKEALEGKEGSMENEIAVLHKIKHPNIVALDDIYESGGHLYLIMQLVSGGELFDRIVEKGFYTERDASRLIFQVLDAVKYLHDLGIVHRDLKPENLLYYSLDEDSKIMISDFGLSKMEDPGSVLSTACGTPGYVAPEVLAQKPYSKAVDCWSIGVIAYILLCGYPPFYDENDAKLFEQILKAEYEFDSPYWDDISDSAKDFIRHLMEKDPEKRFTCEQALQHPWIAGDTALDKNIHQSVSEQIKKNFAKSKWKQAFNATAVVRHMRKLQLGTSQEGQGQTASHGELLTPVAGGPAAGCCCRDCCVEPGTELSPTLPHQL
Protein kinase C delta type, sequence (Q05655 whole entry): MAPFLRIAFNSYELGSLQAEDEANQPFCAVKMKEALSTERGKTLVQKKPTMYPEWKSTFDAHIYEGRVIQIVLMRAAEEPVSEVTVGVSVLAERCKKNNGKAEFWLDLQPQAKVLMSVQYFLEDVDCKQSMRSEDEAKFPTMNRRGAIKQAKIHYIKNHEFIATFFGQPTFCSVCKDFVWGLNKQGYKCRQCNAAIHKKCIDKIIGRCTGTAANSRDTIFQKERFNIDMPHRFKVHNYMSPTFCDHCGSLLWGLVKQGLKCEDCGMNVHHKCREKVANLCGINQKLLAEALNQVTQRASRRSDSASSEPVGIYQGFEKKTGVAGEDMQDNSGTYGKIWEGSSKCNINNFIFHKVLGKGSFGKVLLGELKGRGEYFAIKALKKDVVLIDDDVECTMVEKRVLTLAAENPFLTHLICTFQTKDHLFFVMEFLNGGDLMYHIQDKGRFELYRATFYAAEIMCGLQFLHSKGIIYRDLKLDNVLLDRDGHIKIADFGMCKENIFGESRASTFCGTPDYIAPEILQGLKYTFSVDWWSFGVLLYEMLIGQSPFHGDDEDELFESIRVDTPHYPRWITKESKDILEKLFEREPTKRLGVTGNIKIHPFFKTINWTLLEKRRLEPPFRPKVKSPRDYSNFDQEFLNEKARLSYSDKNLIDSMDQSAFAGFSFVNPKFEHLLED
Megakaryocyte-associated tyrosine-protein kinase, sequence (P42679 whole entry): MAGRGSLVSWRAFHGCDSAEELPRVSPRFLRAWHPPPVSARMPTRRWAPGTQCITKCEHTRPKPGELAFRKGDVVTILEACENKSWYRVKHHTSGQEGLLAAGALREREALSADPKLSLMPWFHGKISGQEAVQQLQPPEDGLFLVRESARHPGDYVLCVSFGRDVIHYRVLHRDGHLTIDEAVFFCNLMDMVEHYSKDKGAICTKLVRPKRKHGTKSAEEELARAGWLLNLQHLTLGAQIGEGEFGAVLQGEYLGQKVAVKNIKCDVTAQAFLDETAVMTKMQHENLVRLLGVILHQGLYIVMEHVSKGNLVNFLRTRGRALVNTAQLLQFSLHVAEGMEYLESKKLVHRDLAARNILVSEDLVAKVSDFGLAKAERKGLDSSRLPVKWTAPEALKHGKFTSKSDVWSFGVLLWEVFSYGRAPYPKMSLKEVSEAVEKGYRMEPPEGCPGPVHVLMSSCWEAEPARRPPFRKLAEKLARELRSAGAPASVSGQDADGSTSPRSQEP
Dual specificity mitogen-activated protein kinase kinase 1, sequence (Q02750 whole entry): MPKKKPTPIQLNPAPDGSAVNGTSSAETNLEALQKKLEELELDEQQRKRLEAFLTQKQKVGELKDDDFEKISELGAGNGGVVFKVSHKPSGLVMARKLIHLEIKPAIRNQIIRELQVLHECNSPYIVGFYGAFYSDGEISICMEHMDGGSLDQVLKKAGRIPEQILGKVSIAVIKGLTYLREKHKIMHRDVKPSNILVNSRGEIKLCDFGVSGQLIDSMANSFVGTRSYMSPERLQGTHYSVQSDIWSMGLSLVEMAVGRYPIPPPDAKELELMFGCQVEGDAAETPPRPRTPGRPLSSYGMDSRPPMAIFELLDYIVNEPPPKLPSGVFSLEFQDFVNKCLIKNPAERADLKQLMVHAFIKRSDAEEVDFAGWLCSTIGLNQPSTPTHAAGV
Casein kinase I isoform delta, sequence (P48730 whole entry, canonical isoform): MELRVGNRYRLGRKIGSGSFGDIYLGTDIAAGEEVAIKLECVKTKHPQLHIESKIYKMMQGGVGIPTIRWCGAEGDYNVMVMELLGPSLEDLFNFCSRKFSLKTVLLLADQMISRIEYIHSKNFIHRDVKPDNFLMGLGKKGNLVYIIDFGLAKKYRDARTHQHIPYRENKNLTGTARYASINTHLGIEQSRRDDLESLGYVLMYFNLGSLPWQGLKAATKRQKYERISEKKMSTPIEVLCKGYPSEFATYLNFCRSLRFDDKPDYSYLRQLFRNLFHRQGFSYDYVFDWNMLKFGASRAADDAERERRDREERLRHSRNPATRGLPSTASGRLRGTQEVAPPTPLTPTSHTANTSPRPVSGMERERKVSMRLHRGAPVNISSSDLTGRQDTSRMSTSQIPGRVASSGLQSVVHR
Activated CDC42 kinase 1, sequence (Q07912 whole entry, canonical isoform): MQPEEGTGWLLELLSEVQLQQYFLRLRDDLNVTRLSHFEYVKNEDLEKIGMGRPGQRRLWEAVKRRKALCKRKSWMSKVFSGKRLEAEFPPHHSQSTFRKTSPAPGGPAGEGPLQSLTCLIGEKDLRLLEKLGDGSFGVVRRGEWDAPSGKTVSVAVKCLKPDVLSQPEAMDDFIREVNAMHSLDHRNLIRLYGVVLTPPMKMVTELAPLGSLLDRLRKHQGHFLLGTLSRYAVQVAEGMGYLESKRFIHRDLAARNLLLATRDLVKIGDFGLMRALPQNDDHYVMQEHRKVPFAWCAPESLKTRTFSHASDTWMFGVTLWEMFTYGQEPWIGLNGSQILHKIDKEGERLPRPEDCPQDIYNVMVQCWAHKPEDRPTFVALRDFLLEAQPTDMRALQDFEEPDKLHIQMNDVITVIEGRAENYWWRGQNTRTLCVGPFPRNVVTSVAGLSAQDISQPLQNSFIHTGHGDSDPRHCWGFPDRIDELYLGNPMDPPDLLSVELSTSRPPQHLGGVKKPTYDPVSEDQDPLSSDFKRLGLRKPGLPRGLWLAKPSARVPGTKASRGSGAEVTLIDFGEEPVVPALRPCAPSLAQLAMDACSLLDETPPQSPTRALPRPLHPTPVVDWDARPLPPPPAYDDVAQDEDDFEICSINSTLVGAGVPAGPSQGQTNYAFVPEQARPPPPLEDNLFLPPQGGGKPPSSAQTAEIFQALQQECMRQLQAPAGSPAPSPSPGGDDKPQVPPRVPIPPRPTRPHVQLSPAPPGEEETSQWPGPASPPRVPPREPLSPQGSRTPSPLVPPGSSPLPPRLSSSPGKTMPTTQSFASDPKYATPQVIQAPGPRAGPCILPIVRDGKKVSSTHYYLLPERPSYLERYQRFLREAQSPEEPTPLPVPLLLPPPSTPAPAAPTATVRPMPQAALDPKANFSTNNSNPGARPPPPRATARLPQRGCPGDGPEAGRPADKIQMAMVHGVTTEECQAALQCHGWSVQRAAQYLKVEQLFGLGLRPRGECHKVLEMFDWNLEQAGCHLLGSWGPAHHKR
Serine/threonine-protein phosphatase, sequence (Q9BPW0 whole entry): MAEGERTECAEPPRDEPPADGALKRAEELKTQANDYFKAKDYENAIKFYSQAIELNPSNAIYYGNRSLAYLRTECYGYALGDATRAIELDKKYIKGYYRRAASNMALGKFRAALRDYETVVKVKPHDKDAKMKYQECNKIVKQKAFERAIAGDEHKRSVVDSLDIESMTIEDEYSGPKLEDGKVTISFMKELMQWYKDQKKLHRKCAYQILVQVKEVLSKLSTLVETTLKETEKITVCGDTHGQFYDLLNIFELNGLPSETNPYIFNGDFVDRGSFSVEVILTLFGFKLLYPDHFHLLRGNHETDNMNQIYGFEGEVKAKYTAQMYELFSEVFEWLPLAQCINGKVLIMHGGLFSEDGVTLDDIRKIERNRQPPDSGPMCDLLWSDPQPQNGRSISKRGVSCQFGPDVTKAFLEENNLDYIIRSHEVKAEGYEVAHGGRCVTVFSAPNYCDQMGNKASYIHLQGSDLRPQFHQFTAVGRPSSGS
Mitogen-activated protein kinase 9, sequence (P45984 whole entry): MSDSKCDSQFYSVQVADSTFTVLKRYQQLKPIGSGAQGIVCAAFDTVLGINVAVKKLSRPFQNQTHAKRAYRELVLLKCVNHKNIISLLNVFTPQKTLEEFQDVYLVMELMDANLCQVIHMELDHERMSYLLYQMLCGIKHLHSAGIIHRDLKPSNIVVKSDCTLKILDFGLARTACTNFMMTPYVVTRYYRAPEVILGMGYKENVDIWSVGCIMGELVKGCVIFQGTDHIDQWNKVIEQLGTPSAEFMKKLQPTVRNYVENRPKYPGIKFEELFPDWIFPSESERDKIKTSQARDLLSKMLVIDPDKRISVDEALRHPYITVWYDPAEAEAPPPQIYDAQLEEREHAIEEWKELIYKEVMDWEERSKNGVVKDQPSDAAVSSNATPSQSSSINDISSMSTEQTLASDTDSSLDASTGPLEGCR
3-phosphoinositide-dependent protein kinase 1, sequence (O15530 whole entry): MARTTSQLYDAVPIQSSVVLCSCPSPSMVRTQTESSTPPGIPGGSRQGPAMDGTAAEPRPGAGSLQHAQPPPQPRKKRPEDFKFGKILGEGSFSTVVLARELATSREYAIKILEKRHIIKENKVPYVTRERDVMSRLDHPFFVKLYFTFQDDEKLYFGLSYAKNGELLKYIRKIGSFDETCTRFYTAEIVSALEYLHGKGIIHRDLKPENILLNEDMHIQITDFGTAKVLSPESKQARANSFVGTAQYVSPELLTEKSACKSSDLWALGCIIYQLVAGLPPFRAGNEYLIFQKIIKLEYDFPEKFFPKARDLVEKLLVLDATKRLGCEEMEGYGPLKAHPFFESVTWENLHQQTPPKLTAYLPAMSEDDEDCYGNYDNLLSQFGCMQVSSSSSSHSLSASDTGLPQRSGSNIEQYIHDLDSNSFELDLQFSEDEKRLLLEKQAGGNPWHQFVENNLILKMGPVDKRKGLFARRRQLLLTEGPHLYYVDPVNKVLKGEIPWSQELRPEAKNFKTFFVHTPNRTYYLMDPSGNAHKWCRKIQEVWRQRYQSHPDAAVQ

By AC50 is commonly meant the concentration at which the activity in the assay is half-maximal. In the case of `Cc1c(NC(=O)C(C)OC(=O)c2ccc([N+](=O)[O-])s2)c(=O)n(-c2ccccc2)n1C` (stereo not drawn), the AC50 in [1] is 17500 nM (active).
By IC50 is commonly meant the concentration that inhibits the measured activity by half. On to `COc1cc(Br)c(C(=O)c2nccc3cc(OC)c(OC)cc23)cc1OC`, for which, in experiment [2], the IC50 is 5920 nM (active).
In general, Ki refers to a dissociation constant, usually derived from enzyme kinetics or from competition with a known ligand. As for `CC(N)C1CCC(C(=O)Nc2ccnc3[nH]ccc23)CC1` (stereo not drawn), the Ki in experiment [3] is > 2000 nM (inactive); in experiment [4] it was > 2510 nM (inactive); in [5], 158 nM (active); in experiment [6] it was > 2510 nM (inactive); in experiment [7], > 1260 nM (inactive); in [8], > 1260 nM (inactive). The Ki in experiment [9] is 1580 nM (active); in experiment [10], > 10000 nM (inactive); in [11], 3160 nM (active); in experiment [12], > 3980 nM (inactive); in experiment [13], > 1580 nM (inactive); in [14], > 1580 nM (inactive). Moreover, the Ki in [15] was > 3980 nM (inactive); in experiment [16], > 7940 nM (inactive); in experiment [17], 2000 nM (active); in experiment [18], > 5010 nM (inactive); in experiment [19], 7940 nM (active); in [20], > 1580 nM (inactive). Also, the Ki was 631 nM (active) in experiment [21], > 7940 nM (inactive) in experiment [22] and 2000 nM (active) in experiment [23].
